Structures are written as SMILES.

Test [1] deals with T1, human MCH receptor 1 (MCHR1) (Homo sapiens, UniProt Q99705).
T1 construct: expressed in transfected cells; host or cells: CHO cell clone 57 (membrane fraction)
The experiment in a line: human MCH receptor 1 (MCHR1) competitive binding assay with [125I]-MCH(4-19). The settings on record: test compound 0.1 μM, human MCHR1-expressing CHO cell membrane fraction, read-out: Binding inhibition rate % (0.1 μM). On the procedure:
Determination of human MCH receptor 1 (MCHR1) competitive inhibitory activity of test compound using binding assay
1. Preparation of Membrane Fraction
Using human MCHR1 (=SLC-1 receptor)-expressing CHO cell clone 57 described in WO01/82925, MCHR1-expressing CHO cell membrane fractions were prepared by the following method.
In phosphate buffered saline (pH 7.4) supplemented with 5 mM EDTA (ethylenediaminetetraacetic acid) were respectively suspended human MCHR1-expressing CHO cells (1×10^8 cells) and centrifuged. Homogenate buffer (10 mL, 10 mM NaHCO3, 5 mM EDTA, pH 7.5, 0.5 mM PMSF (phenylmethylsulfonyl fluoride), 20 mg/L leupeptin, 4 mg/L E-64, 1 mg/L pepstatin A) was added to the pellets of the cells and, using Polytron Homogenizer, the mixture was homogenated. The supernatant obtained after centrifugation at 400×g for 10 min was further centrifuged at 100,000×g for 1 hr to give precipitate of the membrane fraction. The precipitate were suspended in 2 mL of assay buffer [20 mM Tris-HCl (pH 7.5), 5 mM EDTA, 0.5 mM PMSF, 20 mg/L leupeptin, 4 mg/L E-64, 1 mg/L pepstatin A]. The membrane fractions were suspended in assay buffer to a protein concentration of 2 mg/mL, and after dispensing, preserved at −80° C. and used upon thawing each time when in use.
The MCHR1 ligand binding inhibitory activity of the test compound was determined as follows.
An MCHR1-expressing CHO cell membrane fraction (173 μL) diluted with an assay buffer was dispensed to a 96 well polypropylene plate (3363, Corning). DMSO solution (2 μL), 33 μM cold MCH(1-19) diluted with DMSO solution (2 μL), or a test compound solution diluted with DMSO solution to various concentrations (2 μL) was added, and lastly, [^125I]-MCH (4-19) diluted with assay buffer (hereinafter, sometimes to be referred to as “hot MCH”, 25 μL) was added to each well. The mixture was reacted with stirring at room temperature for 1 hr, and the plate was set on FilterMate Harvester (PerkinElmer). Using a treating glass filter plate (GF/C, PerkinElmer) with polyethyleneimine, which had been previously set, the plate was suction-filtered and washed three times with washing buffer (50 mM Tris-HCl buffer pH 7.5). The glass filter plate was dried, MicroScinti0 (PerkinElmer) was added at 25 μL/well, and the resulting radioactivity was measured by TopCount liquid scintillation counter (PerkinElmer). The binding inhibition rate of the test compound was calculated by the following formula. Binding inhibition (%)=100−(radioactivity upon addition of test compound and hot MCH−radioactivity upon addition of cold MCH and hot MCH solution)/(radioactivity upon addition of DMSO solution and hot MCH−radioactivity upon addition of cold MCH and hot MCH solution)×100
The binding inhibition rates (%) of test compounds (0.1 μM) as measured using human MCHR1-expressing CHO cell are shown in Table 2.

A further test has as its target T2, human MCHR1 (Homo sapiens, UniProt Q99705).
T2 construct: expressed in transfected cells; host or cells: CHO dhfr- cells, clone #4
The experiment in a line: MCH receptor 1 antagonistic activity, Ca2+ mobilization assay. The test is classed as cell-based. The settings on record: CHO, test compound 0.1 μM; human MCHR1-expressing CHO cells (clone #4); ligand MCH(4-19) 2 nM; read-out: Inhibitory rate % (0.1 μM). As to the method: Measurement of MCH Receptor 1 Antagonistic Activity of Test Compound Using Ca^2+ Mobilization Assay Using an expression vector plasmid introduced with human MCHR1 gene for expression in animal cells, human MCHR1 gene was introduced into CHO cells (CHO dhfr^−) by Lipofectamine LTX (Invitrogen). The cells were cultured in selection MEMα medium [445 mL of MEMα medium without nucleic acid and added with 5 mL of Penicillin-Streptomycin (Invitrogen) and 50 mL of dialyzed fetal bovine serum]. Colony 24 clones grown in the selection medium, which were human MCHR1 gene-expressing CHO cell candidates, were selected. […] In the following test, this human MCHR1-expressing CHO cell (clone #4) was used. An integrated dispensing function fluorometer (CellLux, PerkinElmer) was used for Ca^2+ mobilization assay. […] The medium was removed, and the cells were washed with phosphate buffered saline (PBS). […] The plate was set on a plate reader. […] The inhibition rates (%) of test compounds (0.1 μM) as antagonist activity measured using human MCHR1-expressing CHO cells (clone #4) are shown in the following Table 3.

T1 sequence (Q99705 whole entry): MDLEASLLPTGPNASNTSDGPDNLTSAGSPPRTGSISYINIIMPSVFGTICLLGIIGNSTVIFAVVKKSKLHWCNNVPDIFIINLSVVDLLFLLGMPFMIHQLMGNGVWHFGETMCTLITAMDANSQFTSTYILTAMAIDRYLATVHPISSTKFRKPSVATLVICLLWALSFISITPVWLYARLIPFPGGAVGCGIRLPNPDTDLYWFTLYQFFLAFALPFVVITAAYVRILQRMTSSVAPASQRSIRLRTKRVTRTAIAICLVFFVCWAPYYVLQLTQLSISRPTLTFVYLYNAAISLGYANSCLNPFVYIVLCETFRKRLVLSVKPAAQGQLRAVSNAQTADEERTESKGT
T2 sequence (Q99705 whole entry): as above

With `Cn1c([C@@H]2C[C@@H]2C(C)(C)O)nc2ccc(-n3ccc(OCc4ccc(Cl)cc4)cc3=O)cc21` (racemic) [Example 80, 4-((4-Chlorobenzyl)oxy)-1-(2-((1RS,2SR)-2-(2-hydroxypropan-2-yl)cyclopropyl)-1-methyl-1H-benzimidazol-6-yl)pyridin-2(1H)-one], the inhibition at 0.1 µM came to 91% in test [1] and 99% at human MCHR1.

`Cn1c([C@H]2C[C@H]2C#N)nc2ccc(-n3ccc(OCc4ccc(Cl)cc4)cc3=O)cc21` (racemic) [Example 148, (1RS,2SR)-2-(6-(4-((4-Chlorobenzyl)oxy)-2-oxopyridin-1(2H)-yl)-1-methyl-1H-benzimidazol-2-yl)cyclopropanecarbonitrile]: the inhibition at 0.1 µM in test [1] worked out at 69%; on human MCHR1, 94%.

Take `Cn1c(C2CC2)nc2ccc(-n3ccc([C@@H]4C[C@H]4c4ccc(Cl)cc4)cc3=O)cc21` (racemic) [Example 253, 4-((1RS,2RS)-2-(4-chlorophenyl)cyclopropyl)-1-(2-cyclopropyl-1-methyl-1H-benzimidazol-6-yl)pyridin-2(1H)-one]: the inhibition at 0.1 µM was determined as 64% in test [1] and 69% at human MCHR1.

In the case of `Cn1c(C(=O)C2CC2)nc2ccc(-n3ccc(OCc4ccc(F)cc4)cc3=O)cc21` [Example 31, 1-(2-(Cyclopropylcarbonyl)-1-methyl-1H-benzimidazol-6-yl)-4-((4-fluorobenzyl)oxy)pyridin-2(1H)-one], the inhibition at 0.1 µM was found to be 52% in test [1] and 61% at human MCHR1.

As for `CC(C)Cc1nc2ccc(-n3ccc(OCc4ccc(Cl)cc4)cc3=O)cc2n1C` [Example 37, 4-((4-Chlorobenzyl)oxy)-1-(2-isobutyl-1-methyl-1H-benzimidazol-6-yl)pyridin-2(1H)-one], the results for the inhibition at 0.1 µM (in test [1]; at human MCHR1) were 59% and 51%, respectively.

On to `CC1CC1c1nc2ccc(-n3ccc(OCc4ccc(F)cc4)cc3=O)cc2n1C` (centres unmarked) [Example 43, 4-((4-Fluorobenzyl)oxy)-1-(1-methyl-2-(2-methylcyclopropyl)-1H-benzimidazol-6-yl)pyridin-2(1H)-one], for which the inhibition at 0.1 µM in test [1] amounted to 69%; on human MCHR1 it was 100%.

Take `Cc1c(C2CC2)nc2ccc(-n3ncc(OCc4ccc(Cl)cc4)cc3=O)cn12` [Example 55, 5-((4-Chlorobenzyl)oxy)-2-(2-cyclopropyl-3-methylimidazo[1,2-a]pyridin-6-yl)pyridazin-3(2H)-one]: the inhibition at 0.1 µM in test [1] is 53%; at human MCHR1, 78%.

As to `Cn1c(C2CC2(F)F)nc2ccc(-n3ccc(OCc4ccc(Cl)cc4)cc3=O)cc21` (centres unmarked) [Example 62, 4-((4-Chlorobenzyl)oxy)-1-(2-(2,2-difluorocyclopropyl)-1-methyl-1H-benzimidazol-6-yl)pyridin-2(1H)-one], the results for the inhibition at 0.1 µM (in test [1]; at human MCHR1) were 63% and 57%, respectively.

On to `CCCc1nc2ccc(-n3ccc(OCc4ccc(F)cc4)cc3=O)cc2n1C` [Example 64, 4-((4-Fluorobenzyl)oxy)-1-(1-methyl-2-propyl-1H-benzimidazol-6-yl)pyridin-2(1H)-one], for which the values for the inhibition at 0.1 µM (in test [1]; at human MCHR1) were 76% and 99%, respectively.

In the case of `CC(=O)c1nc2ccc(-n3ccc(OCc4ccc(F)cc4)cc3=O)cc2n1C` [Example 66, 1-(2-Acetyl-1-methyl-1H-benzimidazol-6-yl)-4-((4-fluorobenzyl)oxy)pyridin-2(1H)-one], the inhibition at 0.1 µM was determined as 57% in test [1] and 84% on human MCHR1.

`Cn1c(-c2cnco2)nc2ccc(-n3ccc(OCc4ccc(F)cc4)cc3=O)cc21` [Example 69, 4-((4-Fluorobenzyl)oxy)-1-(1-methyl-2-(1,3-oxazol-5-yl)-1H-benzimidazol-6-yl)pyridin-2(1H)-one]: the values for the inhibition at 0.1 µM (in test [1]; at human MCHR1) were 65% and 58%, respectively.

For the molecule `Cc1c(C2CC2)nc2ccc(-n3ccc(OCc4ccc(Cl)cc4)nc3=O)cn12` [Example 70, 4-((4-Chlorobenzyl)oxy)-1-(2-cyclopropyl-3-methylimidazo[1,2-a]pyridin-6-yl)pyrimidin-2(1H)-one], the inhibition at 0.1 µM was found to be 79% in test [1] and 35% at human MCHR1.

For the molecule `Cn1c(C2CC2)nc2ccc(-n3ccc(OCc4ccccc4F)cc3=O)cc21` [Example 71, 1-(2-Cyclopropyl-1-methyl-1H-benzimidazol-6-yl)-4-((2-fluorobenzyl)oxy)pyridin-2(1H)-one], the inhibition at 0.1 µM in test [1] came out at 72%; on human MCHR1, 43%.

Take `Cn1c(C2CC2)nc2ccc(-n3ccc(OCc4cccc(F)c4)cc3=O)cc21` [Example 72, 1-(2-Cyclopropyl-1-methyl-1H-benzimidazol-6-yl)-4-((3-fluorobenzyl)oxy)pyridin-2(1H)-one]: the inhibition at 0.1 µM in test [1] came out at 80%; on human MCHR1, 58%.

Regarding `Cn1c(C2CC2)nc2ccc(-n3ccc(OCc4ccsc4)cc3=O)cc21` [Example 75, 1-(2-Cyclopropyl-1-methyl-1H-benzimidazol-6-yl)-4-(3-thienylmethoxy)pyridin-2(1H)-one], the results for the inhibition at 0.1 µM (in test [1]; at human MCHR1) were 84% and 80%, respectively.

`Cc1ncoc1-c1nc2ccc(-n3ccc(OCc4ccc(F)cc4)cc3=O)cc2n1C` [Example 89, 4-((4-Fluorobenzyl)oxy)-1-(1-methyl-2-(4-methyl-1,3-oxazol-5-yl)-1H-benzimidazol-6-yl)pyridin-2(1H)-one]: the inhibition at 0.1 µM in test [1] is 73%; on human MCHR1, 46%.

As for `CCc1nc2ccc(-n3ccc(OCc4ccc(Cl)c(F)c4)cc3=O)cc2n1C` [Example 229, 4-((4-Chloro-3-fluorobenzyl)oxy)-1-(2-ethyl-1-methyl-1H-benzimidazol-6-yl)pyridin-2(1H)-one], in test [1], the inhibition at 0.1 µM came out at 45%.

As for `Cn1c(C2CC2)nc2ccc(-n3ccc(OCc4cc(Br)c(Cl)s4)cc3=O)cc21` [Example 232, 4-((4-Bromo-5-chloro-2-thienyl)methoxy)-1-(2-cyclopropyl-1-methyl-1H-benzimidazol-6-yl)pyridin-2(1H)-one], in test [1], the inhibition at 0.1 µM was found to be 73%.

As for `CCc1nc2ccc(-n3ccc(OCc4ccc(C(F)(F)F)s4)cc3=O)cc2n1C` [Example 233, 1-(2-Ethyl-1-methyl-1H-benzimidazol-6-yl)-4-((5-(trifluoromethyl)-2-thienyl)methoxy)pyridin-2(1H)-one], the inhibition at 0.1 µM in test [1] came to 67%.

On to `CCc1nc2ccc(-n3ccc(OCc4ccsc4F)cc3=O)cc2n1C` [Example 234, 1-(2-Ethyl-1-methyl-1H-benzimidazol-6-yl)-4-((2-fluoro-3-thienyl)methoxy)pyridin-2(1H)-one], for which the inhibition at 0.1 µM in test [1] stood at 50%.

For the molecule `CCc1nc2ccc(-n3ccc(OCc4ccc(F)s4)cc3=O)cc2n1C` [Example 246, 1-(2-Ethyl-1-methyl-1H-benzimidazol-6-yl)-4-((5-fluorothiophen-2-yl)methoxy)pyridin-2(1H)-one], the inhibition at 0.1 µM in test [1] turned out to be 52%.

In the case of `Cn1c(C2CC2)nc2ccc(-n3ccc(OCc4ccc5sccc5c4)cc3=O)cc21` [Example 255, 4-(1-Benzothiophen-5-ylmethoxy)-1-(2-cyclopropyl-1-methyl-1H-benzimidazol-6-yl)pyridin-2(1H)-one], the inhibition at 0.1 µM in test [1] turned out to be 85%.

These data come from US9365540B2, “Benzimidazole derivatives as MCH receptor antagonists” (Takeda Pharmaceutical Company Limited, priority 2012, dated 2016).
